# Experimental data as given in PubChem BioAssay (NCI).
# “And” between values parts separate entries of the source, which are not always exact repeats. Identical values can stand only once.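 Compound exposure: 48 hours, 5 concentrations, 96-well plates. GI50 is the concentration that inhibits growth by half. TGI marks complete inhibition of growth.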
# Experiments:
# Test in all cases: DTP human tumour cell line panel, 48 h
# A498 renal = system: A498 renal
# ACHN renal = system: ACHN renal
# CCRF-CEM leukemia = system: CCRF-CEM leukemia
# HCT-116 colon = system: HCT-116 colon
# HCT-15 colon = system: HCT-15 colon
# HOP-92 NSCLC = system: HOP-92 NSCLC
# KM12 colon = system: KM12 colon
# MALME-3M melanoma = system: MALME-3M melanoma
# NCI-H226 lung = system: NCI-H226 lung
# UO-31 renal = system: UO-31 renal
SMILES,GI50 (A498 renal),TGI (A498 renal),GI50 (ACHN renal),TGI (ACHN renal),GI50 (CCRF-CEM leukemia),TGI (CCRF-CEM leukemia),GI50 (HCT-116 colon),TGI (HCT-116 colon),GI50 (HCT-15 colon) [µM],TGI (HCT-15 colon),GI50 (HOP-92 NSCLC),TGI (HOP-92 NSCLC),GI50 (KM12 colon),TGI (KM12 colon),GI50 (MALME-3M melanoma),TGI (MALME-3M melanoma),GI50 (NCI-H226 lung),TGI (NCI-H226 lung),GI50 (UO-31 renal),TGI (UO-31 renal)
COC(=O)OCc1ccc2c(c1)C(=O)c1c-2n(CCCBr)c(=O)c2cc([N+](=O)[O-])ccc12,57.6 µM,> 100 µM,24.2 µM,93.8 µM,45.9 µM,> 100 µM,81.2 µM,> 100 µM,> 100,> 100 µM,28.9 µM,77.1 µM,> 100 µM,> 100 µM,> 100 µM,> 100 µM,> 100 µM,> 100 µM,> 100 µM,> 100 µM
O=C1C(=O)c2ccccc2C(O)=C1CC=C(Cl)Cl,15.1 µM and 13.9 µM,57.8 µM and 96.2 µM and 51 µM,3.48 µM and 7.5 µM,23 µM and 187 µM and > 100 µM,1.57 µM and 4.69 µM,52.1 µM and 162 µM and > 100 µM,1.15 µM and 2.96 µM,29.7 µM and 44 µM and > 100 µM,0.424,51.7 µM and 159 µM and > 100 µM,14.2 µM and 11.8 µM,50.8 µM and 122 µM and 47.3 µM,11.7 µM and 5.17 µM,> 82.8 µM and 161 µM and > 100 µM,16.2 µM and 28.2 µM,51.8 µM and 42.5 µM and 94.5 µM,8.26 µM and 24.2 µM and 14.4 µM,39.9 µM and 135 µM and 91.1 µM,15.8 µM and 7.26 µM,81.2 µM and 101 µM and > 100 µM
O=S(=O)(NCCNc1cc(-c2cn(-c3ccccc3)nc2-c2cccc(O)c2)ccn1)c1ccc(Cl)cc1,2.33 µM,9.52 µM,2.63 µM,10.3 µM,3.4 µM,28.6 µM,2.69 µM,11.4 µM,2.14,6.42 µM,2.34 µM,8.35 µM,2.63 µM,9.62 µM,2.16 µM,5.47 µM,4.02 µM,21.2 µM,2.92 µM,12.1 µM
CS(=O)(=O)CCn1c(=O)c(Oc2ccc(F)cc2F)cc2cnc(NC3CCOCC3)nc21,15.8 µM,> 25 µM,> 25 µM,> 25 µM,> 25 µM,> 25 µM,> 25 µM,> 25 µM,> 25,> 25 µM,2.64 µM,> 25 µM,> 25 µM,> 25 µM,> 25 µM,> 25 µM,> 25 µM,> 25 µM,> 25 µM,> 25 µM
CC(=O)c1cc2c(c3ccsc13)-c1ccccc1CC2,17.2 µM,67.8 µM,45.5 µM,> 100 µM,21.7 µM,62.1 µM,20.3 µM,> 100 µM,22.3,> 100 µM,28.9 µM,> 100 µM,12.5 µM,54.9 µM,15.7 µM,55.2 µM,38 µM,> 100 µM,26.6 µM,85.2 µM
Nc1ccc2ccc(NS(=O)(=O)N3CCCCC3)cc2c1,0.176 µM,0.872 µM,3.64 µM,> 100 µM,0.46 µM,> 100 µM,0.514 µM,> 38.7 µM,0.44,> 100 µM,0.532 µM,73.1 µM,0.273 µM,> 65.7 µM,0.489 µM,> 100 µM,2.56 µM,> 100 µM,1.7 µM,> 100 µM
NC(=S)N/N=C\c1nccc2c(N)cccc12,0.172 µM,1.02 µM,0.0977 µM,,,,0.356 µM,> 46 µM,0.426,> 100 µM,0.233 µM,> 100 µM,0.38 µM,> 100 µM,0.316 µM,3.08 µM,0.282 µM,1.08 µM,0.298 µM,1.24 µM
CN1CCN(c2ccc(NC3=C(Cl)C(=O)c4ncccc4C3=O)cc2C#N)CC1,11.7 µM,25.3 µM,1.15 µM,2.36 µM,,,1.72 µM,3.36 µM,1.64,3.53 µM,1.82 µM,3.45 µM,10.8 µM,25.4 µM,1.47 µM,2.81 µM,16.8 µM,36.3 µM,1.34 µM,2.61 µM
O=C(NNS(=O)(=O)c1ccc(F)cc1)c1cccnc1Nc1ccc(Cl)cc1Cl,17.3 µM,36.5 µM,46.1 µM,> 100 µM,21.1 µM,> 100 µM,30.3 µM,> 100 µM,26.8,83.5 µM,15.4 µM,36.1 µM,23 µM,48.5 µM,34.7 µM,> 100 µM,29.6 µM,96.9 µM,,
Cc1cc(N(CCC#N)CCC#N)ccc1N=Nc1cccc(Cl)c1,,> 100 µM,,> 100 µM,,> 100 µM,,> 100 µM,,,,> 100 µM,,> 100 µM,,> 100 µM,,> 100 µM,,> 100 µM
